# In US8175815B2, “Method for assessing absorption properties of low solubility compounds” (F. Hoffmann-La Roche AG, priority 2006, dated 2012):
# Several values for one entry are separate records, joined by “and”; a condition that tells them apart may be missing. Identical values can stand only once. Like-named read-outs stand apart in the source and are kept apart here.
# Assays:
# [1] = PAMPA, 30 min, 50 μM
# [2] = PAMPA, pH 5
# physchem [3] = test: physchem
# [4] = Double-Sink PAMPA permeability with and without excipients
# [5] = equilibrium solubility-pH, direct-UV microtitre plate (μSOL Evolution) with and without excipients; conditions: for solubility at 18 h / pKa at 18 h: aqueous universal buffer (pION); for solubility at 18 h: 25 °C, kinetic from dmso stock; for pKa at 18 h: saturated drug suspension, pKa^APP ± SD
# physchem [6] = conditions: pKa^APP ± SD
# [7] = flux function combining permeability and solubility measurement results; conditions: for net flux effect due to 1% HP-β-CD: pH 5.0, 6.2, 7.4, FIG. 13; for flux increase factor: 1% HP-β-CD vs excipient-free
# [8] = mice, oral, cited from earlier work
# [9] = mice; +HP-β-CD / no excip.
# [10] = 18 h
# [11] = apparent/true molecular weight, 40 μm ABL assumed, 0 mM NaTC (first value)
# [12] = apparent ionization constant in saturated solution, excipient none
# [13] = apparent ionization constant, excipient 3 mM NaTC
# [14] = apparent ionization constant, excipient 15 mM NaTC
# [15] = apparent ionization constant, excipient 0.1M KCl
# [16] = apparent ionization constant, excipient 0.2M KCl
# [17] = apparent ionization constant, excipient 1% HP-b-CD
# [18] = apparent ionization constant, excipient 1% NMP
# [19] = apparent ionization constant, excipient 1% PEG400
# [20] = apparent ionization constant, excipient 1% PG
# [21] = apparent ionization constant, excipient 5% PEG400
# [22] = apparent ionization constant, excipient 5% PG
# [23] = apparent ionization constant, excipient […] HP-b-CD
# [24] = apparent ionization constant, excipient […] NMP
# [25] = apparent ionization constant, excipient […] PEG400
# [26] = apparent ionization constant, excipient […] PG
# [27] = buffer + 1% w/v HP-b-CD, * = anticipated salt limit exceeded
# [28] = buffer, * = anticipated salt limit exceeded
smiles,measurement,setting,value
Cc1cccc(Nc2ccccc2C(=O)O)c1C [mefenamic acid],PABL 0 mM NaTC,[1],782
same,PABL 3 mM NaTC,[1],909
same,PABL 15 mM NaTC,[1],795
same,refined ABL thickness,[1],exceeding 75 μm
same,net flux effect due to 1% HP-β-CD,[2],"In acid solutions, flux is helped by 1% HP-β-CD, but in neutral solutions, there is a net loss"
same,pKa,physchem [3],4.39 ± 0.09
same,MW*/MW,[4]; 3 mM NaTC (second value),3
same,MW*/MW,[4]; 15 mM NaTC (third value),4
same,MW*/MW,[4]; [11],4
same,solubility at 18 h,[5]; aqueous buffer,0.021 ± 0.005 µg/mL
same,solubility at 18 h,[5]; aqueous with cosolvent or surfactant or cyclodextrin,< 3 µg/mL
same,pKa at 18 h,[5]; [12],4.3 ± 0.3
same,pKa at 18 h,[5]; [13],5.8 ± 0.1
same,pKa at 18 h,[5]; [14],5.7 ± 0.1
same,pKa at 18 h,[5]; [15],4.4 ± 0.4
same,pKa at 18 h,[5]; [16],4.3
same,pKa at 18 h,[5]; [17],5.2 ± 0.1
same,pKa at 18 h,[5]; [18],4.4 ± 0.2
same,pKa at 18 h,[5]; [19],4.5
same,pKa at 18 h,[5]; [20],4 ± 0.3
same,pKa at 18 h,[5]; [21],4.5 ± 1.1
same,pKa at 18 h,[5]; [22],4
same,pKa at 18 h,[5]; [23],4.6 ± 0.1
same,pKa at 18 h,[5]; [24],4.1 ± 0.6
same,pKa at 18 h,[5]; [25],4.5 ± 0.2
same,pKa at 18 h,[5]; [26],4.1 ± 0.3
same,So ± SD,[5]; excipient 3 mM NaTC,0.11 ± 0.03 µg/mL
same,So^APP ± SD,[5]; excipient 3 mM NaTC,1.9 ± 0.4 µg/mL
same,So ± SD,[5]; excipient 15 mM NaTC,0.10 ± 0.03 µg/mL
same,So^APP ± SD,[5]; excipient 15 mM NaTC,1.4 ± 0.3 µg/mL
same,So^APP ± SD,[5]; excipient 0.1M KCl,0.023 ± 0.005 µg/mL
same,So^APP ± SD,[5]; excipient 0.2M KCl,0.021 µg/mL
same,So ± SD,[5]; excipient 1% HP-b-CD,0.61 µg/mL
same,So^APP ± SD,[5]; excipient 1% HP-b-CD,2.9 ± 0.5 µg/mL
same,So^APP ± SD,[5]; excipient 1% NMP,0.062 ± 0.010 µg/mL
same,So^APP ± SD,[5]; excipient 1% PEG400,0.021 µg/mL
same,So^APP ± SD,[5]; excipient 1% PG,0.021 µg/mL
same,So^APP ± SD,[5]; excipient 5% PEG400,0.028 µg/mL
same,So^APP ± SD,[5]; excipient 5% PG,0.056 µg/mL
same,So ± SD,[5]; excipient […] HP-b-CD,0.28 ± 0.02 µg/mL
same,So^APP ± SD,[5]; excipient […] HP-b-CD,0.34 ± 0.02 µg/mL
same,So^APP ± SD,[5]; excipient […] NMP,0.019 ± 0.009 µg/mL
same,So^APP ± SD,[5]; excipient […] PEG400,0.004 ± 0.002 µg/mL
same,So^APP ± SD,[5]; excipient […] PG,0.021 µg/mL
same,intrinsic solubility in excipient free buffer,[5]; excipient free,0.021 µg/mL
same,So^APP ± SD,[5]; excipient none,0.021 ± 0.005 µg/mL
same,salt limit (sdiff 3-4 approximation),[5]; three orders of magnitude above excipient-free intrinsic solubility,21 µg/mL
Clc1ccccc1C(c1ccccc1)(c1ccccc1)n1ccnc1 [clotrimazole],PABL 0 mM NaTC,[1],2400
same,PABL 3 mM NaTC,[1],604
same,determined ABL thickness hABL,[1],< 50 μm
same,pKa,physchem [3],6.02 ± 0.05
same,pKa at 18 h,physchem [6],7.4 ± 1.1
same,MW*/MW,[4]; 3 mM NaTC (second value),5
same,MW*/MW,[4]; [11],< 1
CCCCc1oc2ccccc2c1C(=O)c1cc(I)c(OCCN(CC)CC)c(I)c1 [amiodarone],net flux effect due to 1% HP-β-CD,[7],cross-over pattern as a function of pH
CCCSc1ccc2nc(NC(=O)OC)[nH]c2c1 [albendazole],Cmax +HP-β-CD,[8]; HP-β-CD (20% w/v),390 ng/mL
same,Tmax +HP-β-CD,[8]; HP-β-CD (20% w/v),19.8 min
same,Cmax no excip.,[8]; suspension of excipient-free drug,90 ng/mL
same,Tmax no excip.,[8],45 min
same,Po,[4]; buffer,4.28 ± 1.59 E−04 cm s^−1
same,Po,[4]; buffer + 1% w/v HP-b-CD,3.12 ± 0.30 E−05 cm s^−1
same,AUC Ratio,[9],1.4
same,Cmax Ratio,[9],4.3
same,Tmax Ratio,[9],0.4
same,flux increase factor,[7]; pH 5.0,3.0
same,flux increase factor,[7]; pH 6.2,3.1
same,flux increase factor,[7]; pH 7.4,3.1
same,average flux gain factor,"[7]; 1% HP-β-CD, average over pH 5.0, 6.2, 7.4",3.1
same,net flux effect due to 1% HP-β-CD,[7],"gains, uniformly at the three pH values of interest"
same,So^APP,[5]; buffer,0.88 ± 0.07 µg/mL
same,S(pH 7.4),[5]; buffer + 1% w/v HP-b-CD,34 μg mL^−1
same,So^APP,[5]; buffer + 1% w/v HP-b-CD,34 ± 1 µg/mL
same,S(pH 5.0),[5]; [27],34 μg mL^−1
same,S(pH 6.2),[5]; [27],34 μg mL^−1
same,S(pH 5.0),[5]; [28],1.0 μg mL^−1
same,S(pH 6.2),[5]; [28],0.89 μg mL^−1
same,S(pH 7.4),[5]; [28],0.88 μg mL^−1
OCCN(CCO)c1nc(N2CCCCC2)c2nc(N(CCO)CCO)nc(N3CCCCC3)c2n1 [dipyridamole],PABL 0 mM NaTC,[1],941
same,PABL 3 mM NaTC,[1],922
same,PABL 15 mM NaTC,[1],47
same,net flux effect due to 1% HP-β-CD,[2],the flux remains unaffected by the excipient
same,pKa,physchem [3],6.22 ± 0.15
same,MW*/MW,[4]; 3 mM NaTC (second value),1
same,MW*/MW,[4]; 15 mM NaTC (third value),1100
same,MW*/MW,[4]; [11],~1
same,pKa at 18 h,[5]; [12],5.8 ± 0.1
same,pKa at 18 h,[5]; [13],5.6 ± 0.1
same,pKa at 18 h,[5]; [14],5.2 ± 0.1
same,pKa at 18 h,[5]; [15],6 ± 0.1
same,pKa at 18 h,[5]; [16],5.9 ± 0.1
same,pKa at 18 h,[5]; [17],5.6 ± 0.1
same,pKa at 18 h,[5]; [18],5.7 ± 0.1
same,pKa at 18 h,[5]; [19],5.9 ± 0.2
same,pKa at 18 h,[5]; [20],5.8 ± 0.1
same,pKa at 18 h,[5]; [21],6.2 ± 0.1
same,pKa at 18 h,[5]; [22],5.8 ± 0.1
same,pKa at 18 h,[5]; [23],5.8 ± 0.1
same,pKa at 18 h,[5]; [24],5.8 ± 0.1
same,pKa at 18 h,[5]; [25],6.8 ± 0.1
same,pKa at 18 h,[5]; [26],5.8 ± 0.1
same,So ± SD,[5]; excipient 3 mM NaTC,5.3 ± 0.9 µg/mL
same,So^APP ± SD,[5]; excipient 3 mM NaTC,24 ± 2 µg/mL
same,So ± SD,[5]; excipient 15 mM NaTC,9.9 ± 1.7 µg/mL
same,So^APP ± SD,[5]; excipient 15 mM NaTC,110 µg/mL and 110 ± 5 µg/mL
same,So ± SD,[5]; excipient 0.1M KCl,3.3 ± 0.8 µg/mL
same,So^APP ± SD,[5]; excipient 0.1M KCl,5.2 ± 0.8 µg/mL
same,So ± SD,[5]; excipient 0.2M KCl,3.1 ± 0.7 µg/mL
same,So^APP ± SD,[5]; excipient 0.2M KCl,5.8 ± 0.9 µg/mL
same,So ± SD,[5]; excipient 1% HP-b-CD,3.2 ± 0.7 µg/mL
same,So^APP ± SD,[5]; excipient 1% HP-b-CD,15 ± 1 µg/mL
same,So ± SD,[5]; excipient 1% NMP,2.4 ± 0.7 µg/mL
same,So^APP ± SD,[5]; excipient 1% NMP,8.1 ± 1.5 µg/mL
same,So ± SD,[5]; excipient 1% PEG400,5.0 ± 1.9 µg/mL
same,So^APP ± SD,[5]; excipient 1% PEG400,11 ± 3 µg/mL
same,So ± SD,[5]; excipient 1% PG,2.7 ± 0.2 µg/mL
same,So^APP ± SD,[5]; excipient 1% PG,6.5 ± 0.3 µg/mL
same,So ± SD,[5]; excipient 5% PEG400,13.7 ± 2.4 µg/mL
same,So^APP ± SD,[5]; excipient 5% PEG400,14 ± 1 µg/mL
same,So ± SD,[5]; excipient 5% PG,3.9 ± 0.8 µg/mL
same,So^APP ± SD,[5]; excipient 5% PG,9.8 ± 1.3 µg/mL
same,So ± SD,[5]; excipient […] HP-b-CD,2.8 ± 0.7 µg/mL
same,So^APP ± SD,[5]; excipient […] HP-b-CD,7.1 ± 0.8 µg/mL
same,So ± SD,[5]; excipient […] NMP,2.2 ± 0.6 µg/mL
same,So^APP ± SD,[5]; excipient […] NMP,5.9 ± 1.1 µg/mL
same,So^APP ± SD,[5]; excipient […] PEG400,4.6 ± 1.2 µg/mL
same,So ± SD,[5]; excipient […] PG,2.1 ± 0.3 µg/mL
same,So^APP ± SD,[5]; excipient […] PG,5.8 ± 0.5 µg/mL
same,So ± SD,[5]; excipient none,2.3 ± 0.7 µg/mL
same,So^APP ± SD,[5]; excipient none,6.2 ± 1.1 µg/mL and 6.2 µg/mL
COc1ccc(CCN2CCC(Nc3nc4ccccc4n3Cc3ccc(F)cc3)CC2)cc1 [astemizole],PABL 0 mM NaTC,[1],1080
same,PABL 3 mM NaTC,[1],561
same,PABL 15 mM NaTC,[1],9
same,determined ABL thickness hABL,[1],< 50 μm
same,So ± SD,[10],4.0 ± 2.9 µg/mL
same,pKa,physchem [3],5.99 ± 0.06
same,pKa at 18 h,physchem [6],9.1 ± 0.5
same,MW*/MW,[4]; 3 mM NaTC (second value),5
same,MW*/MW,[4]; 15 mM NaTC (third value),56000
same,MW*/MW,[4]; [11],~1
